Where two headings read alike, the source gives them in different places.
Columns and labels:
[1] = LTI-291-001: safety and tolerability; assay type: in vivo, human
Description: This study was a first-in-human Phase 1, randomized, double-blind, placebo-controlled, single-ascending dose study to evaluate the safety and tolerability, PK, and PD of escalating single oral doses of Compound A (3, 10, 30, and 90 mg) in 4 cohorts of healthy subjects. A total of 32 subjects received a single oral dose of Compound A (8 per dose group) and 8 subjects received placebo. The effect of food on the PK of Compound A was evaluated by administering a second single oral dose of 10 mg Compound A to the subjects in Cohort 2 on a separate occasion, after subjects had completed a high-fat breakfast. Blood samples for Compound A PK were collected up to 48 hours after each dose.

[2] = LTI-291-003: NeuroCart, MMSE, MDS-UPDRS, EEG; assay type: in vivo, human; conditions: 10, 30, 60 mg daily for 28 days, GBA-PD
Description: GluCer, GluSph, and LacCer were measured in plasma, PBMCs, and CSF as biomarkers of pharmacological effects. The pharmacodynamic evaluations also consisted of a battery of NeuroCart assessments (Saccadic Eye Movements, Smooth Pursuit Eye Movements, Adaptive Tracking, Body Sway, and Visual Verbal Learning Test); functional outcome measures (MDS-UPDRS Part III, and the MMSE); and pharmaco-EEG.

[3] = LTI-291-004: fMRI, FDG-PET and functional outcome measures; assay type: in vivo, human
Description: This study was a Phase 1B, randomized, double-blind, placebo-controlled, multiple oral dose study of Compound A in 14 subjects (aged 51 to 81 years) with GBA-PD. The objectives of this study were to investigate the safety, tolerability, and PK of multiple once-daily oral administration of Compound A and to explore the accompanying pharmacodynamic changes. Subjects received once-daily oral doses of 10 mg (n=6) or 60 mg (2×30 mg capsules) (n=6) Compound A or placebo (n=2) for 28 consecutive days. PK samples were measured once on Day 7 and Day 14 and 4 times after the last dose on Day 28. Plasma concentrations were summarized at each time point, and no PK parameters were estimated. The PD evaluations included fMRI measures; FDG-PET to determine the metabolic rate of glucose in specific regions of the brain; and functional outcome measures (MDS-UPDRS Part III and the MMSE). GluCer, GluSph, and LacCer and other sphingolipids were measured in PBMCs and plasma as biomarkers of pharmacological effect.

[4] = BIA 28-6156-106 mass balance recovery, metabolite profiling and PK of 14C-Compound A; assay type: in vivo, human
Description: (§1) This was a Phase 1, single-dose, mass balance recovery study of ^14C-Compound A in 1 cohort of healthy male subjects, aged 30 to 65 years. A total of 6 subjects received a single oral dose of 60 mg Compound A, containing not more than 3.7 MBq ^14C, under fasted conditions. Objectives included determining the routes and rates of elimination of ^14C-Compound A, identifying the structure of metabolites that account for more than 10% of circulating total radioactivity in plasma and total radioactive dose in urine and feces, exploring the PK of Compound A, evaluating the extent of distribution of TR into blood cells, and gathering additional safety and tolerability information for Compound A.

[5] = BIA 28-6156-106: safety and tolerability; assay type: in vivo, human
Description: as §1

[6] = BIA 28-6156-107: safety and tolerability; assay type: in vivo, human
[7] = BIA 28-6156-110 DDI, rosuvastatin portion; assay type: in vivo, human; conditions: after 6 days of dosing with 60 mg, rosuvastatin portion
Description: In Cohort 1, a single oral dose of 10 mg rosuvastatin was administered alone on Day 1. No drug was administered on Day 2. From Day 3 to Day 8, a single daily dose of 60 mg Compound A was administered.

[8] = BIA 28-6156-110 DDI, metformin portion; assay type: in vivo, human; conditions: after 6 days of dosing with 60 mg, metformin portion
Description: In Cohort 2, a single oral dose 500 mg metformin was administered alone on Day 1. From Day 2 to Day 7, a single daily dose of 60 mg Compound A was administered.

[9] = after 6 days of dosing with 60 mg, Madopar portion
Description: This was a Phase 1, non-randomized, open-label, 2-cohort, cross-over, DDI study in healthy male and female subjects.
In Cohort 2, a single oral dose 100 mg/25 mg levodopa-benserazide (Madopar®) IR was administered alone on Day 1.

[10] = clinical; conditions: both, human, plasma, 60 mg; for AUC(0-t): Madopar portion, geometric mean
[11] = BIA 28-6156-105: continuous cardiac monitoring, concentration-QTc analysis

CCCCCO[C@H]1CC[C@H](NC(=O)c2cnn3c(C)cc(C)nc23)CC1 [Compound A, 5,7-dimethyl-N-((1S*,4S)-4-(pentyloxy)cyclohexyl)pyrazolo[1,5-a]pyrimidine-3-carboxamide]
AE fatigue, subjects ([1]; all Compound A groups): 7.5% | AE headache, subjects ([1]; all Compound A groups): 12.5% | AE somnolence, subjects ([1]; all Compound A groups): 10% | at least one AE in the GI system organ class, subjects ([1]; all Compound A groups): 7.5% | vital signs, laboratory safety assessments, ECG parameters ([1]; single doses): no clinically significant safety observations | deaths, SAEs, severe AEs, discontinuations due to AEs ([1]; single doses 3-90 mg): No deaths, other SAEs, severe AEs, or discontinuations due to AEs | effects on NeuroCart tests, MMSE, MDS-UPDRS, EEG [2]: no dose-dependent effects | default mode network (DMN) assessed by fMRI ([3]; 10 or 60 mg daily for 28 days, differences not statistically significant): improved the default mode network | MDS-UPDRS III and MMSE scores ([3]; Day 28 vs Day -1, all subjects): unchanged | radioactivity recovered in excreta, mean ([4]; 60 mg 14C-Compound A oral, fasted, 288-hour sampling period): approximately 93% | exposure to Compound A as share of circulating plasma total recovery ([4]; based on AUC0-inf): approximately 92% | Tmax ([4]; male, human, plasma, single oral dose of 60 mg 14C BIA-28, read-out: Median Tmax): 1.5 h | AUC(0-inf) ([4]; male, human, plasma, single oral dose of 60 mg 14C BIA-28, read-out: plasma AUC0-inf, geometric mean): 42100 ng·h/mL | AUC(0-t) ([4]; male, human, plasma, single oral dose of 60 mg 14C BIA-28, read-out: plasma AUC0-last, geometric mean): 41700 ng·h/mL | Cmax ([4]; male, human, plasma, single oral dose of 60 mg 14C BIA-28, read-out: plasma Cmax, geometric mean): 1750 ng/mL | half-life ([4]; male, human, plasma, single oral dose of 60 mg 14C BIA-28, read-out: plasma half-life, geometric mean (converted)): 21.5 h | vital signs, laboratory safety assessments, ECG parameters ([5]; in vivo): no clinically significant safety observations | relatedness of AEs ([5]; investigator assessment): unrelated to the IMP | deaths, SAEs, severe AEs, discontinuations due to AEs ([5]; single 60 mg dose): No deaths, other SAEs, severe AEs, or discontinuations due to AEs | subjects reporting mild headaches ([5]; single 60 mg dose): 33.3% | subjects reporting moderate tinea cruris ([5]; single 60 mg dose): 16.7% | subjects reporting AEs ([5]; single 60 mg dose, 6 subjects): 50.0% | AEs ([6]; 60 mg Compound A with 25 mg/100 mg immediate-release carbidopa-levodopa): No AEs were reported | subjects reporting AEs ([6]; 60 mg Compound A with 300 mg extended-release carbamazepine): 25.0% | subjects reporting AEs ([6]; after 60 mg Compound A alone, 12 subjects): 16.7% | SAEs ([6]; in vivo): No SAEs were reported | vital signs, physical examinations, ECG parameters, C-SSRS ([6]; in vivo): no clinically significant safety observations | steady state concentrations of Compound A [7]: appeared not to have been reached | steady state concentrations of Compound A [8]: appeared not to have been reached | steady state concentrations of Compound A [9]: appeared not to have been reached | Cmax [10]: 2030 ng/mL | Tmax [10]: 2 h | AUC(0-t) ([10]; AUC0-24, 60 mg Compound A alone): 24000 ng·h/mL | AUC(0-t) ([10]; AUC0-t, 60 mg Compound A alone): 22800 ng·h/mL | effects on cardiac ECG parameters ([11]; doses of 60 and 150 mg): no clinically relevant effects | effect on ΔΔQTcF (concentration-QTc analysis) ([11]; plasma concentrations of Compound A up to approximately 7150 ng/mL): ≤ 10 ms
